This note sets out measurements from ChEMBL document CHEMBL5365497, “Developing Novel Coumarin-Containing Azoles Antifungal Agents by the Scaffold Merging Strategy for Treating Azole-Resistant Candidiasis” (J Med Chem, 2023).

The structures appear in SMILES notation. In brackets after ≈: the same amount, converted by molar mass. Bounds are passed on as bounds.

For series [1], the system named is Candida albicans. Kind of series: Antifungal activity against Candida albicans CPCC400616 assessed as fungal growth inhibition by CLSI based microdilution method. Type of series: functional. For orientation: Dilution methods test growth across graded concentrations, often in twofold steps.
The test system of series [2] is Candida albicans. Kind of series: Antifungal activity against Candida albicans SC5314 assessed as fungal growth inhibition by CLSI based microdilution method. Type of series: functional.
In a further series the test system is Candida parapsilosis. Kind of series: Antifungal activity against Candida parapsilosis assessed as fungal growth inhibition by CLSI based microdilution method. The note with it: Lodderomyces parapsilosis. Type of series: functional.
For a further series, the system named is Nakaseomyces glabratus. Put plainly: Antifungal activity against Candida glabrata assessed as fungal growth inhibition by CLSI based microdilution method. Type of series: functional.
A further series relates to Pichia kudriavzevii. Put plainly: Antifungal activity against Pichia kudriavzevii assessed as fungal growth inhibition by CLSI based microdilution method. Type of series: functional.
Another series deals with Candida tropicalis. Kind of series: Antifungal activity against Candida tropicalis assessed as fungal growth inhibition by CLSI based microdilution method. Type of series: functional.
The next series concerns Cryptococcus neoformans. Kind of series: Antifungal activity against Cryptococcus neoformans assessed as fungal growth inhibition by CLSI based microdilution method. Type of series: functional.
The target in another series is T1, Cytochrome P450 1A2 (Homo sapiens, UniProt P05177).
T1 sequence (P05177 whole entry): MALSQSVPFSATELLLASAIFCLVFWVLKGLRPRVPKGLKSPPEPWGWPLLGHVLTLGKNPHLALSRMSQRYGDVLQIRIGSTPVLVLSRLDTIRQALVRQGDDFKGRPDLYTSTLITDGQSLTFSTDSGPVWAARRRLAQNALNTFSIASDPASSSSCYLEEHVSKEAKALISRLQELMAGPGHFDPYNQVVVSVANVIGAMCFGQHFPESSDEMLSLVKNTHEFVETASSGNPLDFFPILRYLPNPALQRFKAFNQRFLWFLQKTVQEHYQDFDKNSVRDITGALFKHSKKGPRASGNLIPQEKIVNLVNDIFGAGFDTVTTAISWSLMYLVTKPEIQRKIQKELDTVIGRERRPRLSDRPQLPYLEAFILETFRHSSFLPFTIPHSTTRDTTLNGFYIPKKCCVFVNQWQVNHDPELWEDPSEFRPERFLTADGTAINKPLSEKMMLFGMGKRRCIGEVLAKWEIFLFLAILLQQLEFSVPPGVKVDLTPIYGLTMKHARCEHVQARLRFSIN
Put plainly: Inhibition of CYP1A2 in human liver microsomes using phenacetin as substrate preincubated for 5 mins followed by NADPH addition by LC-MS/MS analysis. Type of series: ADME, Microsome. In general terms: Liver microsomes are vesicles of endoplasmic reticulum, rich in cytochrome P450 enzymes.

Series [3] can be described thus: Stability in mouse plasma assessed as compound remaining at 1 uM measured for 180 mins by LC-MS/MS analysis. It is filed as ADME, cell-free. Particulars: read-out: Stability.
Series [4] is described as follows: Stability in mouse plasma assessed as half life at 1 uM measured for 180 mins by LC-MS/MS analysis. It is filed as ADME, cell-free.
The target of a further series is Cytochrome P450 2C9 (Homo sapiens, UniProt P11712). Kind of series: Inhibition of CYP2C9 in human liver microsomes using diclofenac as substrate preincubated for 5 mins followed by NADPH addition by LC-MS/MS analysis. It is filed as ADME, Microsome.
Sequence of Cytochrome P450 2C9 (P11712 whole entry): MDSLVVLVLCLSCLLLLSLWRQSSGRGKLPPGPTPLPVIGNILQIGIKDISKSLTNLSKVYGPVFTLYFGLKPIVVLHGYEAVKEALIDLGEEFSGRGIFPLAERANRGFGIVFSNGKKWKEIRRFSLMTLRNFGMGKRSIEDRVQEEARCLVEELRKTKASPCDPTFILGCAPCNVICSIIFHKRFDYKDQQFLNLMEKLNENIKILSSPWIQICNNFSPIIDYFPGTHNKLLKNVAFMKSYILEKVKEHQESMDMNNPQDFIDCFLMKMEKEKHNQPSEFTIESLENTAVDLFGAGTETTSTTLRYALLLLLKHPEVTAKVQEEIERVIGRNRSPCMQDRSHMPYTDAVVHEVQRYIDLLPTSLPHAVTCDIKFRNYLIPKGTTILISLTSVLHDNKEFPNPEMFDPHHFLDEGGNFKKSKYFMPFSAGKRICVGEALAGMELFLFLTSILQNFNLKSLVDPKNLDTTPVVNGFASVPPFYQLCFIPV
A further series has as its target Cytochrome P450 2D6 (Homo sapiens, UniProt P10635). Kind of series: Inhibition of CYP2D6 in human liver microsomes using dextromethorphan as substrate preincubated for 5 mins followed by NADPH addition by LC-MS/MS analysis. It is filed as ADME, Microsome.
A short description of series [5]: Cytotoxicity against mouse J774.A1 cells assessed as cell growth inhibition by MTT assay. Type of series: toxicity, cell-based. A general note: Formazan colour is commonly taken as a measure of viable cells.
The subject of series [6] is Candida albicans. Put plainly: Antifungal activity against fluconazole-resistant Candida albicans CaR assessed as fungal growth inhibition by CLSI based microdilution method. It is filed as functional.
Series [7] has as its system Candida albicans. Kind of series: Antifungal activity against fluconazole-resistant Candida albicans 17# assessed as fungal growth inhibition by CLSI based microdilution method. It is filed as functional.
In series [8] the test system is Candida albicans. Put plainly: Antifungal activity against fluconazole-resistant Candida albicans 632 assessed as fungal growth inhibition by CLSI based microdilution method. Type of series: functional.
For series [9], the system named is Candida albicans. Put plainly: Antifungal activity against fluconazole-resistant Candida albicans 904 assessed as fungal growth inhibition by CLSI based microdilution method. Type of series: functional.
The test system of series [10] is Candida albicans. Put plainly: Antifungal activity against fluconazole-resistant Candida albicans 901 assessed as fungal growth inhibition by CLSI based microdilution method. Type of series: functional.

Sequence of Cytochrome P450 2D6 (P10635 whole entry): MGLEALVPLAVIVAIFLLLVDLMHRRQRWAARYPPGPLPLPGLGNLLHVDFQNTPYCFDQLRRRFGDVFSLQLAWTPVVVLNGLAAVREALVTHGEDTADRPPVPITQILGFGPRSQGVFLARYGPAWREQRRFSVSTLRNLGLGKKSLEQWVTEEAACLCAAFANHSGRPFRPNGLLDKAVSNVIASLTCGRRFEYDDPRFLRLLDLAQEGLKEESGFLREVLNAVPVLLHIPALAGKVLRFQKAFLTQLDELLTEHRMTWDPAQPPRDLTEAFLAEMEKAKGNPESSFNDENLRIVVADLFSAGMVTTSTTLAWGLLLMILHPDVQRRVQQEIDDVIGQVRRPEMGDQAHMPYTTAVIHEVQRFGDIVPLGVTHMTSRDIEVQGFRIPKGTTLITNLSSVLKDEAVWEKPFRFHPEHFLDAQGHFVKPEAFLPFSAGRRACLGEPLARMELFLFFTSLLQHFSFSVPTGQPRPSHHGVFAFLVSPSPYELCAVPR

As usually defined, the MIC is the smallest concentration in the dilution series that meets the test's criterion for growth inhibition. Usually IC50 stands for the concentration needed to halve the response being measured. Broadly, the half-life is the time in which the quantity being followed falls by half. `Clc1ccc(COC(Cn2ccnc2)c2ccc(Cl)cc2Cl)c(Cl)c1` (centres undefined) [MICONAZOLE]: the MIC was 0.25 µg/mL (≈ 0.601 µM) with Candida albicans [1]; 0.03 µg/mL (≈ 0.0721 µM) with Candida albicans [2]; 0.25 µg/mL (≈ 0.601 µM) with Candida parapsilosis; 0.5 µg/mL (≈ 1.2 µM) in the series on Nakaseomyces glabratus; 0.5 µg/mL (≈ 1.2 µM) with Pichia kudriavzevii; 1 µg/mL (≈ 2.4 µM) with Candida tropicalis. In addition, in the series on Cryptococcus neoformans, the MIC worked out at 0.25 µg/mL (≈ 0.601 µM). Also, the IC50 on Cytochrome P450 1A2 stood at 2.62 µM; against Cytochrome P450 2C9 it was 0.115 µM; on Cytochrome P450 2D6, 0.875 µM; in series [5] it was 22.2 µM. In addition, the remaining at 3 h, 1 µM in [3] turned out to be 94.9%. Further, the half-life at 1 µM in series [4] is more than 6 h.
As to `O=c1ccc2ccc(COC(Cn3ccnc3)c3ccc(F)cc3F)cc2o1` (centres undefined), the minimum inhibitory concentration (MIC) in the series with Candida albicans [1] was 4 µg/mL (≈ 10.5 µM); in the series with Candida albicans [2], 0.25 µg/mL (≈ 0.654 µM); in the series on Candida parapsilosis, 16 µg/mL (≈ 41.8 µM); with Nakaseomyces glabratus, 64 µg/mL (≈ 167 µM); in the series on Pichia kudriavzevii, 64 µg/mL (≈ 167 µM); in the series on Candida tropicalis, 8 µg/mL (≈ 20.9 µM). Moreover, the MIC in the series with Cryptococcus neoformans stood at 64 µg/mL (≈ 167 µM); with Candida albicans [6], 128 µg/mL (≈ 335 µM); with Candida albicans [7], 128 µg/mL (≈ 335 µM); in the series with Candida albicans [8], 32 µg/mL (≈ 83.7 µM); with Candida albicans [9], 32 µg/mL (≈ 83.7 µM); in the series with Candida albicans [10] it was 64 µg/mL (≈ 167 µM).
For `O=c1ccc2cc(COC(Cn3ccnc3)c3ccc(F)cc3)ccc2o1` (centres undefined), the minimum inhibitory concentration (MIC) with Candida albicans [1] was 2 µg/mL (≈ 5.49 µM); in the series on Candida albicans [2], 0.5 µg/mL (≈ 1.37 µM); in the series on Candida parapsilosis, 4 µg/mL (≈ 11 µM); with Nakaseomyces glabratus it was 32 µg/mL (≈ 87.8 µM); in the series with Pichia kudriavzevii it was 64 µg/mL (≈ 176 µM); in the series on Candida tropicalis, 8 µg/mL (≈ 22 µM). Further, the MIC was determined as 64 µg/mL (≈ 176 µM) with Cryptococcus neoformans; 128 µg/mL (≈ 351 µM) in the series on Candida albicans [6]; 128 µg/mL (≈ 351 µM) in the series on Candida albicans [7]; 64 µg/mL (≈ 176 µM) in the series on Candida albicans [8]; 32 µg/mL (≈ 87.8 µM) in the series on Candida albicans [9]; 64 µg/mL (≈ 176 µM) in the series on Candida albicans [10].
Take `O=c1ccc2ccccc2o1` [COUMARIN]: the MIC in the series on Candida albicans [1], in the series on Candida albicans [2], in the series on Candida parapsilosis, in the series with Nakaseomyces glabratus, in the series on Pichia kudriavzevii and in the series on Candida tropicalis was more than 128 µg/mL throughout. Besides, the MIC in the series on Cryptococcus neoformans was more than 128 µg/mL; with Candida albicans [6], more than 128 µg/mL; in the series with Candida albicans [7] it was 128 µg/mL (≈ 876 µM); in the series with Candida albicans [8], more than 128 µg/mL; in the series on Candida albicans [9], more than 128 µg/mL; with Candida albicans [10], more than 128 µg/mL.
